Where two headings read alike, the source gives them in different places.
What was measured:
β-adrenergic receptors [1] = target: T1, β-adrenergic receptors (Rattus norvegicus, UniProt P18090); experiment: Equilibrium saturation binding of (125I)-iodohydroxybenzylpindolol in treated and washed C6 glioma cells
T1 construct: β-adrenergic receptors in intact living cells; endogenous in cells; host or cells: C6 rat glioma cells, 2B subclone
Text: All washing experiments involving glioma cells utilized this salt solution as the wash medium.
It would be predicted that the occupation of a receptor by a specific ligand should be considered as an effective loss of that receptor provided that the ligand dissociates sufficiently slowly or not at all. […] For all data points, n=3.

[2] = tested on: guinea pig atria (β-adrenergic receptors); experiment: Isoproterenol-increased tension development in isolated guinea pig atria; format: cell-based; details: for shift in cumulative isoproterenol dose response curve: guinea pig atria
Protocol: (§1) For the tests atrial preparations were obtained by excising hearts from 200-250 g male Wistar rats or 300-400 g male Hartley guinea pigs. All of the animals were pretreated with reserpine (5 mg/kg) administered interperitoneally 15-18 hours before the animals were killed by a blow to the back of the neck. Left atria were maintained at 30° C. […] The buffer was vigorously bubbled with 95% O2 -5% CO2. Atria hooked to platinum-iridium electrodes were stimulated at 1 second intervals with 10 msec monophasic pulses at twice the threshold voltage for contractions. Developed tension was recorded on Beckman oscillographic recorders (Dynographs) and the signals processed by a DEC LSI-11 microcomputer. […] The inhibition is time and dose dependent. […] The cumulative dose response curves to (-)-isoproterenol were determined (n=2-3). At the termination of each experiment, maximum tension was determined by exposing atria to 100 μM isobutylmethylxanthine.

guinea pig atria = experiment: Positive inotropic response of isolated guinea pig atria to histamine; format: cell-based; details: guinea pig atria pretreated with aminobenzylpropranolol
Protocol: Experiments were also conducted to determine the extent of aminobenzylpropranolol antagonism to isoproterenol-stimulated contractility in isolated atria. For the tests atrial preparations were obtained by excising hearts from 200-250 g male Wistar rats or 300-400 g male Hartley guinea pigs. All of the animals were pretreated with reserpine (5 mg/kg) administered interperitoneally 15-18 hours before the animals were killed by a blow to the back of the neck. Left atria were maintained at 30° C. (pH 7.4) in buffer containing: 118 mM NaCl, 4.75 mM KCl, 1.2 mM KH2 PO4, 1.2 mM MgSO4, 5.5 mM dextrose, 25 mM NaHCO3, and 1 mM CaCl2. The buffer was vigorously bubbled with 95% O2 -5% CO2. Atria hooked to platinum-iridium electrodes were stimulated at 1 second intervals with 10 msec monophasic pulses at twice the threshold voltage for contractions. Developed tension was recorded on Beckman oscillographic recorders (Dynographs) and the signals processed by a DEC LSI-11 microcomputer.
FIG. 4 contains the cumulative dose response curves to histamine treated atria (n=2-3).

β-adrenergic receptors [3] = target: T1, β-adrenergic receptors; experiment: Displacement of specific (125I)-iodohydroxybenzylpindolol binding, acute or after washing, in intact C6 rat glioma cells
Protocol: For the study involving glioma cells, C6 rat glioma cells, 2B subclone were grown in monolayer cultures by the technique described by Terasaki et al, J. Biol. Chem., 253, 5418-5425 in 16 mm plastic cluster dishes. In all experiments, the cells were changed from Ham's F-10 containing 10% fetal bovine serum growth medium to a simple salt medium containing 130 mM NaCl, 4 mM KCl, 0.6 mM MgSO4, 0.3 mM CaCl2, 5 mM sodium phosphate buffer (pH 7.4). All washing experiments involving glioma cells utilized this salt solution as the wash medium.
In other test plates, the cells were pretreated with aminobenzylpropranolol blocking agent and then washed repeatedly over a period of 3 hours at 37° C. before determination of [^125 I]-iodohydroxybenzylpindolol binding. For all points, n=3, which means that each data point is an average of three separate determinations. […] (This value was corrected for competition by (^125 I)-iodohydroxybenzylpindolol).

[4] = tested on: intracellular cyclic AMP in isoproterenol-treated glioma cells (β-adrenergic receptors); experiment: Isoproterenol-stimulated intracellular cyclic AMP accumulation in pretreated, washed C6 glioma cells; format: cell-based, rat; details: for increase of apparent activation constant for isoproterenol: 40 minutes, then washed 3 hours at 37° C.
Protocol: The ability of the present β-adrenergic receptor blocking compound to function as an effective β-adrenergic blocking agent for the selective elimination of cellular β-adrenergic receptors is apparent from the following study on the interaction of aminobenzylpropranolol with glioma cells and mammalian atrium cells. For the study involving glioma cells, C6 rat glioma cells, 2B subclone were grown in monolayer cultures by the technique described by Terasaki et al, J. Biol. Chem., 253, 5418-5425 in 16 mm plastic cluster dishes. In all experiments, the cells were changed from Ham's F-10 containing 10% fetal bovine serum growth medium to a simple salt medium containing 130 mM NaCl, 4 mM KCl, 0.6 mM MgSO4, 0.3 mM CaCl2, 5 mM sodium phosphate buffer (pH 7.4). All washing experiments involving glioma cells utilized this salt solution as the wash medium. In experiments involving the glioma cells, specific (propranolol-displaceable) binding of (^125 I)-iodohydroxybenzylpindolol to C6 rat glioma cells was performed by the method developed by Terasaki et al (see above reference) with the exception that in all solutions phentolamine was omitted, and at the termination of the radioligand binding reaction, 0.1 mM (±)-propranololwas included in the cell wash solution.
In the study glioma cells were treated for 40 minutes with zero, 0.1 μM (Δ) or 1 μM aminobenzylpropranolol and then washed with salt solution for 3 hours at 37° C. After washing, the cells were treated for 20 minutes with ((-)-isoproterenol) and extracted with HCl to determine the amount of cyclic AMP. For all data points, n=3.

[5] = tested on: isolated atria (β-adrenergic receptors); experiment: Contractility of isolated atria, species not distinguished; format: cell-based, rat or guinea pig
Protocol: as §1, with “isobutylmethylxanthine. […] The degree of inhibition was similar to that observed in glioma cells. […] (2) Efficacy was also assessed by using the phosphodiesterase inhibitor, isobutylmethylxanthine, which is able to elicit a maximal response by itself.” for “isobutylmethylxanthine.”

[6] = tested on: rat atria (β-adrenergic receptors); experiment: Isoproterenol-increased tension development in isolated rat atria; format: cell-based; details: for EC50: Rattus norvegicus, control rat atria, read-out: apparent KAct of isoproterenol
Protocol: as §1

[7] = tested on: cat papillary muscle (β-adrenergic receptors); details: cited from earlier work
[8] = tested on: β-adrenergic receptors of guinea pig taenia; details: receptors photolyzed with isoproterenol or 2-(2-hydroxy-3-isopropylaminopropoxy) iodobenzene; cited from earlier work
[9] = 1 μM for 50 minutes prior to washing
[10] = blocked by N-[2-hydroxy-3-(1-naphthoxy)-propyl]-N-bromoacetylethylenediamine

T1 sequence (P18090 whole entry): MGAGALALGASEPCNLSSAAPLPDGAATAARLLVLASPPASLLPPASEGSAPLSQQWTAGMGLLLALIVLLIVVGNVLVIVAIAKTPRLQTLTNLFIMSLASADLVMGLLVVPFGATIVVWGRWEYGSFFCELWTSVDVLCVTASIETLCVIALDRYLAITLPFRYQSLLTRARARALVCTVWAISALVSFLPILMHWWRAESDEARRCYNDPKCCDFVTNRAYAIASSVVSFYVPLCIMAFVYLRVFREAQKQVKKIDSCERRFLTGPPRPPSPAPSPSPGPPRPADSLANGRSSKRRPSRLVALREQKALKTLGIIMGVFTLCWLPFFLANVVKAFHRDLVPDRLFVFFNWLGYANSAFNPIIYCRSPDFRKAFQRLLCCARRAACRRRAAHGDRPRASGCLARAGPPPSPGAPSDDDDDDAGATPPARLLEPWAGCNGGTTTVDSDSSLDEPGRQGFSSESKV

CC(C)(Cc1ccc(O)c(I)c1)NCC(O)COc1cccc2[nH]ccc12 (stereo not shown) [(^125 I)-iodohydroxybenzylpindolol, reference compound] showed a Kd (β-adrenergic receptors [1]; glioma cells, not different between treated and control, read-out: equilibrium dissociation constant (KD) for (125I)-iodohydroxybenzylpindolol) of 0.06 nM.

With CC(C)(Cc1ccc(N)cc1)NCC(O)COc1cccc2ccccc12 (stereo not drawn) [aminobenzylpropranolol, 1-(p-amino-α,α-dimethylphenethylamino)-3-(1-naphthoxy)-2-propanol] the “shift in cumulative isoproterenol dose response curve” value ([2]; 0.1 μM for 1 hour) was 0.5 log, the “shift in cumulative isoproterenol dose response curve” value ([2]; 10 μM for 1 hour) was 2 log and the isoproterenol-increased tension development ([2]; time and dose dependent) was “inhibits”. For the same compound, the “effect on affinity of the remaining receptors for (125I)-iodohydroxybenzylpindolol” value (β-adrenergic receptors [1]; 80 nM, 40 minutes (37° C.), washed for 3 hours) was “not accomplished by a change in the affinity”, the inhibition at 0.08 µM (β-adrenergic receptors [1]; 40 min, 80 nM, 40 minutes (37° C.), washed for 3 hours, read-out: maximum binding capacity diminished) was 70% and the “maximum receptor binding (FIG. 2)” value (β-adrenergic receptors [1]; treated then washed with salt solution) was “marked reduction”. The “positive inotropic response to histamine” value (guinea pig atria) was “unaltered”, the Kd (β-adrenergic receptors [3]; 40 min at 37° C., corrected for competition by (125I)-iodohydroxybenzylpindolol, read-out: apparent KD in blocking one-half of the β-receptors) was 8 nM and the “antagonist potency, displacing (125I)-iodohydroxybenzylpindolol from β-adrenergic receptors” value (β-adrenergic receptors [3]; intact living glioma cells) was “relatively potent β-adrenergic antagonist”. The “ability to block β-adrenergic receptors assayed acutely (vs after washing)” value (β-adrenergic receptors [3]; washed repeatedly over 3 hours at 37° C.) was “no significant difference”, the “maximal attainable level of intracellular cyclic AMP” value ([4]; 0.1 μM and 1 μM) was “no change” and the “increase of apparent activation constant for isoproterenol” value ([4]; 0.1 μM) was 0.4 log units. For the same compound, the “increase of apparent activation constant for isoproterenol” value ([4]; 1 μM) was 1.1 log units, the “increases in intracellular cyclic AMP in isoproterenol-treated glioma cells” value ([4]; only at submaximal concentrations of the catecholamine) was “inhibited” and the “sensitivity to isoproterenol of treated atria” value ([5]; 0.1 μM or 10 μM pretreatment, washed five times) was “decreased sensitivity to isoproterenol”. For the same compound, the “inhibitory activity in medium transferred from treated, washed atrium to fresh atrium” value ([5]; after washing) was “no inhibitory activity”, the “efficacy (maximum response) of isoproterenol in treated atria” value ([5]; aminobenzylpropranolol-treated atria) was “unchanged” and the “reversal of blockage by high concentrations of isoproterenol” value ([5]; multiple washes and rechallenges) was “did not reverse the blockage”. For the same compound, the “maximal level of tension development” value ([5]; pretreated with 0.1 μM isoproterenol, washed, then 10 μM aminobenzylpropranolol) was “remained the same”, the “shift in cumulative isoproterenol dose response curve” value ([6]; 0.1 μM for 1 hour, rat atria) was 0.5 log and the “fold increase in apparent KAct for isoproterenol” value (from here on “fold increase in apparent KAct”) ([6]; 1 μM for 5 minutes prior to washing) was 1.2 fold. The “fold increase in apparent KAct” value ([6]; 1 μM for 20 minutes prior to washing) was 5.2 fold, the “fold increase in apparent KAct” value [6, 9] was 13.5 fold and the “increase in apparent KAct for isoproterenol” value [6, 9] was 1.1 log units. For the same compound, the “rightward shift of isoproterenol dose response curves” value ([6]; 3 μM for 1 hour, washed 17 hours, 30° C.) was 1.5 log units, the “decrease in inhibition of the isoproterenol response on extended washing” value ([6]; 3 μM for 1 hour, washed 17 hours, vs parallel washed control tissues) was “no detectable decrease” and the “shift in cumulative isoproterenol dose response curve” value ([6]; 10 μM for 1 hour, rat atria) was 2 log. For the same compound, the “onset of the inhibitory action” value ([6]; rat atria) was “slow” and the isoproterenol-increased tension development ([6]; time and dose dependent) was “inhibits”.

With CC(C)Cn1c(=O)n(C)c(=O)c2[nH]cnc21 [isobutylmethylxanthine, reference compound] the “increase in developed tension” value ([5]; 100 μM isobutylmethylxanthine added to atria treated with 10 μM isoproterenol) was “less than 5%”.

In the case of CC(C)NCC(O)c1ccc(O)c(O)c1 (stereo not shown) [isoproterenol, N-isopropylnoradrenaline, reference compound], the “inotropic and cyclic AMP responses to isoproterenol after irreversible block” value [7, 10] is given as “maximal”, the “potency of isoproterenol after irreversible block” value [7, 10] is given as “decreased potency” and the “maximal relaxation by isoproterenol in photolyzed tissue” value [8] is given as “maximal relaxation could still be elicited”. The “potency of isoproterenol in photolyzed tissue” value [8] was “potency was decreased”, the “effect on tension in absence of inhibitor” value ([5]; 0.1 μM isoproterenol) was “maximally effective” and the “desensitization on multiple exposures (decrease in potency for isoproterenol)” value ([5]; control atria, not pretreated with the inhibitor) was “small degree of desensitization”. The EC50 ([6]; first dose response curve) was 0.9 nM and the EC50 ([6]; second dose response curve) was 4.7 nM.

In the case of “N-[2-hydroxy-3-(1-naphthoxy)-propyl]-N-bromoacetylethylenediamine”, the block of receptors ([7]; cat papillary muscle) is listed as “irreversibly blocked”.
